Results published in US20100168041A1, “COMBINATION OF MONOSACCHARIDES AND DESQUAMATING AGENTS, AND USE THEREOF” (L'OREAL, priority 2008, published 2010).

Experiments:
[1] = tested on: keratinocytes (HaCat line); assay: Proliferation of keratinocytes (Cyquant, Nile red, XTT markers); assay type: cell-based; conditions: keratinocytes cultured in medium depleted in growth factors, vs untreated control
Protocol: The keratinocytes (HaCat line) are cultured under two conditions: whole defined culture medium (standard condition) and culture medium deficient in growth factors. This deficient medium gives rise to a controlled delay in cell proliferation. Under these conditions, it is then possible to measure the effects of compounds capable of compensating for the deficiency in growth factors of the culture medium and thus of relaunching the cell multiplication and/or of stimulating cell metabolism.
The keratinocyte proliferation is measured by means of three markers on the same cell population: the level of DNA, which is proportional to the number of cells (Cyquant probe), the level of constituent polar lipids of cell membranes (Nile red probe) and the mitochondrial respiration, which reflects the general cell metabolism (XTT probe).

[2] = tested on: dermal fibroblasts of the reconstructed skin; assay: Proliferation of fibroblasts in whole reconstructed skin (propidium iodide count); assay type: cell-based, human; conditions: 5 mM, within 48 hours of treatment
Excerpt: Rhamnose was studied on a model of whole reconstructed skin in order to measure its anti-ageing efficacy on the dermal compartment.
Briefly, the model of reconstructed skin used is that described by Bell et al. (Bell E. et al., The reconstitution of living skin, J. Invest. Dermatol., 1983, July; 81): it includes a dermal equivalent on which is reconstructed a multistratified epidermis; the dermal equivalent is manufactured from acid-soluble collagen, culture medium containing serum and normal adult human fibroblasts. After 5 days of shrinkage, this equivalent is inoculated with keratinocytes and then cultured for 6 days in immersion and for 7 days in emersion in order to obtain a multistratified and differentiated epidermis having a horny layer.
The reconstructed skin is treated with 5 mM rhamnose for 2 days and 5 days in the culture medium; after the treatment, the reconstructed skins are included in Tissue Tek in order to produce frozen sections 7 μm thick with a cryostat. […] Three frozen sections are prepared at random on each reconstructed skin; on each section, two microscopic fields (25× objective lens) are analysed by fluorescence microscopy and photographed. The dermal fibroblasts are thus counted for each reconstructed skin on six images in total representing the six microscopic fields considered. […]

[3] = tested on: type I procollagen; assay: Synthesis of procollagen 1 in reconstructed skin (indirect immunofluorescence); assay type: cell-based, human; conditions: for procollagen 1 synthesis: reconstructed skin
Protocol: Conventional detection via indirect immunofluorescence of type I procollagen in the dermis of the reconstructed skin was also performed on other series of frozen sections (anti-procoll 1 antibody (MAB 1912 Millipore)+FTIC-coupled conjugate (112-095-068 Jackson Immunoresearch)). In order to obtain bearings within the cutaneous architecture during the microscopic examination of the sections, the cell nuclei of the keratinocytes and fibroblasts are localized by staining them with propidium iodide, as described above. Three frozen sections are prepared at random on each reconstructed skin and on each section, and two microscopic fields (25× objective lens) are analysed by fluorescence microscopy and photographed. The levels of fluorescence proportional to the amount of type I procollagen are compared between the control skin and the skin treated with rhamnose.

With `C[C@H](O)[C@H](O)[C@@H](O)[C@@H](O)C=O` [rhamnose, Rhamnose] the keratinocyte proliferation [1] was “activate keratinocyte proliferation”, the “growth of the dermal fibroblasts” value [2] was “induces stimulation of growth” and the “green fluorescence (proportional to amount of type I procollagen) vs control skin” value ([3]; 1 mM for 120 hours) was “marked increase”. The “synthesis of type I procollagen by the fibroblasts” value ([3]; 1 mM for 120 hours) was “greatly stimulated”, the “procollagen 1 synthesis” value ([3]; 1 mM) was “stimulation of procollagen 1 synthesis” and the “procollagen 1 synthesis” value ([3]; 5 mM) was “stimulation of procollagen 1 synthesis”.
